From patent publication US10006080B2, “High-selectivity contact activation inhibitor based on infestin-4” (OBSCHESTVO S OGRANICHENNOY OTVETSTVENNOSTYU …, priority 2013, dated 2018)

B1: corn trypsin inhibitor (other, UniProt P01088 29-138, looked up)
chain: SAGTSCVPGWAIPHNPLPSCRWYVTSRTCGIGPRLPWPELKRRCCRELADIPAYCRCTALSILMDGAIPPGPDAQLEGRLEDLPGCPREVQRGFAATLVTEAECNLATIS
notes: Isolated from corn; also called CTI

Legend:
contact activation = assay: Thrombodynamics analyzer T-2, artifact clots far from the TF activator in normal frozen-thawed PFP; assay type: biochemical, human; details: MutB 20 μM, CTI 15 μM; for cuvette area occupied by artifact clots far from the activator: 30 minutes after activation, whole cuvette area without inhibitor; for suppression of contact activation, formation of artifact clots: 30 minutes after assay start, n=4
Description: The assay included the following steps: thawing of a frozen PFP sample, adding to it of a contact activation inhibitor and incubating the resulting mixture, sample recalcification and its placing into the measuring cuvette channel, bringing the sample into contact with the TF immobilized at the end of a special insert-activator, and detecting the appearance and growth of fibrin clots in the consequent photography mode. The frozen PFP sample was obtained preliminarily through collection of blood into sodium citrate-containing tubes from several (at least five) healthy donors and subsequent 2 stages of centrifugation and freezing of the prepared plasma at −80° C. During the assay arrangement, the fibrin clot was growing from the insert-activator; appearance of additional clots in the cuvette area far from the activator was also possible, as shown on FIG. 2. Clots in the cuvette area far from the activator can be due to the hypercoagulation state of the sample or to the artifacts of sample contact activation from the cuvette walls (artifact clots): the latter must be suppressed for the said test to allow distinguishing between the normal and hypercoagulation states of the coagulation system. To do that, before activating the sample through bringing it into contact with TF, an efficient quantity of the contact activation inhibitor was added into the sample: in this case, we used the polypeptide comprising the sequence of an infestin-4 mutant MutB. To compare the efficiency of the claimed polypeptide comprising the sequence of an infestin-4 mutant MutB with the contact activation inhibitor CTI known in the field, the said inhibitors were added into 2 separate samples of normal frozen PFP plasma. We used such concentrations of the inhibitors at which the APTT increases nearly four-fold: 20 μM in case of MutB and 15 μM in case of CTI. […] For each sample, 4 repeated measurements were performed. 30 minutes after the assay start, images of the fibrin clot in measuring cuvettes-4 cuvettes for each sample-were obtained: they are shown on FIG. 3.
The cuvette area occupied by artifact clots (in % from the total cuvette area; n=4) was plotted for 3 samples of normal frozen plasma at separate time points (FIG. 4, averaged values at each time point). Without adding the contact activation inhibitor, artifact clots appear in the cuvette area far from the activator nearly 15 minutes after activation and occupy the whole cuvette area after 30 minutes. However, after addition of CTI or MutB, such clots occupy not more than 15% of the cuvette area 30 minutes after activation. […]

[1] = system: TF-initiated fibrin clot growth; assay: Thrombodynamics analyzer T-2, fibrin clot growth from immobilized TF in normal and hypocoagulant PFP (0.1 IU/ml heparin); assay type: biochemical, human; details: MutB 20 μM, CTI 15 μM; n=4
Description: The influence of contact activation inhibitors on coagulation dynamics can be shown on the example of fibrin clot growth from the surface with immobilized TF. The dynamics of fibrin clot growth from the activator can be characterized by the following parameters: delay of clot formation after the contact of plasma with the tissue factor—lag time (Tlag, min); average clot growth velocity within 2-6 minutes after the start of coagulation—initial velocity (Vin, μm/min); and average clot growth velocity within 15-25 minutes after the start of coagulation—stationary velocity (Vst, μm/min) (Balandina et al. 2011, Biophys. J. 101:1816-1824; Dashkevich et at 2012, Biophys. J. 103:2233-2240). The mentioned parameters allow determining the state of blood coagulation of the subjects from whom the test samples were obtained («Practical coagulology», M A Panteleev, S A Vasilyev, E I Sinauridze and co-authors, ed. by A I Vorobyov. Moscow, publishing house «Practical medicine», 2011, 192 pages., ISBN: 978-5-98811-165-8). […]

Molecule	cuvette area occupied by artifact clots far from the activator (contact activation)	suppression of contact activation, formation of artifact clots (contact activation)	influence on the difference of fibrin clot growth dynamics between hypocoagulant and normal plasma [1]
MutB: polypeptide comprising the sequence of infestin-4 mutant MutB (SEQ ID NO: 1), inhibition loop TRNFVA; high-selectivity fXIIa inhibitor (EVRNPCACTRNFVAVCGSDGKTYGNPCMLNCAAQTKVPGLKLVHEGRCQRSNVEQF; Infestin-4 mutant MutB)	not more than 15%	almost complete suppression	does not have any influence
B1	not more than 15%	almost complete suppression	does not have any influence
